In PubChem BioAssay (NCI):
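Tested at 5 concentrations; 48 h exposure; 96-well plates; endpoints linearly interpolated, else capped at highest concentration. Here, GI50 denotes the concentration required for 50% inhibition of growth. TGI is the concentration that stops growth completely.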

How the values were obtained:
Assay in all cases: inhibition of tumour cell growth, NCI panel, 48 h
[1] = tested on: A549 NSCLC
[2] = tested on: CAKI-1 renal
[3] = tested on: HL-60(TB) leukemia
[4] = tested on: HT29 colon
[5] = tested on: MOLT-4 leukemia
[6] = tested on: NCI-H23 lung
[7] = tested on: SK-MEL-28 melanoma
[8] = tested on: UACC-257 melanoma
[9] = tested on: NCI/ADR-RES ovarian
[10] = tested on: PC-3 prostate

| Structure (SMILES) | TGI [1] | TGI [2] | TGI [3] | TGI [4] | TGI [5] | TGI [6] | TGI [7] | TGI [8] | GI50 [6] | GI50 [9] | TGI [9] | GI50 [10] | TGI [10] | GI50 [7] | GI50 [1] | GI50 [2] | GI50 [4] | GI50 [5] | GI50 [8] |
| --- | --- | --- | --- | --- | --- | --- | --- | --- | --- | --- | --- | --- | --- | --- | --- | --- | --- | --- | --- |
| O=C1C2c3[nH]c4ccccc4c3C3CCCCCC3C2C(=O)N1c1ccccc1 (stereo not drawn) | > 67.5 µM | > 100 µM | > 70.3 µM | > 100 µM | 47.7 µM | > 82.9 µM | 97.7 µM | 84.6 µM | – | – | – | – | – | – | – | – | – | – | – |
| O=C(N/C(=C\c1ccccc1Cl)c1nc2ccccc2[nH]1)c1ccccc1 | > 100 µM | > 100 µM | 71.4 µM | 87.2 µM | > 100 µM | > 100 µM | > 100 µM | – | – | – | – | – | – | – | – | – | – | – | – |
| CN(NC1OC(CO)C(O)C(O)C1O)c1ccccc1 (stereo not drawn) | > 100 µM | > 100 µM | > 100 µM | > 100 µM | > 100 µM | > 100 µM | > 100 µM | > 100 µM | – | – | – | – | – | – | – | – | – | – | – |
| COc1ccc(S(=O)(=O)N[C@H](C(=O)O)c2ccccc2)cc1 | > 100 µM | > 100 µM | – | > 100 µM | > 100 µM | > 100 µM | > 100 µM | > 100 µM | – | – | – | – | – | – | – | – | – | – | – |
| COC1OC(CBr)C(OC(=O)c2ccccc2)C(OS(=O)(=O)c2ccc(C)cc2)C1Br (stereo not drawn) | > 100 µM | > 100 µM | > 100 µM | > 100 µM | > 100 µM | > 100 µM | > 100 µM | > 100 µM | – | – | – | – | – | – | – | – | – | – | – |
| Cc1cc(=O)n(-c2c(C)cccc2Cl)c(/C=C(\O)c2ccncc2)n1 | > 100 µM | > 100 µM | > 100 µM | > 100 µM | > 100 µM | > 100 µM | > 100 µM | > 100 µM | – | – | – | – | – | – | – | – | – | – | – |
| c1ccc(-c2n(Cc3ccc4ccccc4c3)cc[n+]2Cc2ccc3ccccc3c2)cc1 | – | – | – | – | – | 2.35 µM | 2.53 µM | – | 0.775 µM | 13.9 µM | 35.4 µM | 1.22 µM | 2.68 µM | 1.14 µM | – | – | – | – | – |
| COc1cc2c(cc1O)CN1CCC23C=C[C@@H](O)CC13 (stereo partly drawn) | > 100 µM | > 100 µM | 38 µM | > 100 µM | > 100 µM | > 100 µM | > 100 µM | > 100 µM | – | – | – | – | – | – | – | – | – | – | – |
| Cc1cc(C)c2c(c1)N[S@@](=O)S2 | > 100 µM | 70.8 µM | 61.2 µM | 41.1 µM | 65.6 µM | > 100 µM | 95.1 µM | 35.7 µM | – | – | – | – | – | – | – | – | – | – | – |
| Cc1c(-c2ccc(O)cc2)oc(=O)c2ccc(O)cc12 | > 100 µM | > 100 µM | – | > 100 µM | > 100 µM | – | > 100 µM | > 100 µM | – | 49.7 µM | > 100 µM | 56.4 µM | > 100 µM | 60 µM | 47.6 µM | 22.4 µM | 73.3 µM | 73.7 µM | 63.2 µM |
| O=C(O)c1c(Cl)c(Cl)c(Cl)c(Cl)c1C(=O)Nc1ccc2cn[nH]c2c1 | > 100 µM | > 100 µM | – | > 100 µM | – | > 100 µM | > 100 µM | > 100 µM | – | – | > 100 µM | – | > 100 µM | – | – | – | – | – | – |
| O=C1c2cccnc2C(=O)c2c1c(C(=O)NCCn1ccnc1)c1ccccn21 | 6.82 µM | 34.5 µM | – | 9.2 µM | 47.9 µM | 4.21 µM | 20.7 µM | 3.93 µM | 1.18 µM | 27.4 µM | > 100 µM | 3.33 µM | 15.2 µM | 4.66 µM | 1.6 µM | 15.1 µM | 2.53 µM | 3.89 µM | 2.06 µM |
| COc1cc(/C=C/C(=O)/C=C/c2cc3ccc(Cl)cc3n(Cc3ccccc3)c2=O)ccc1O | 5.03 µM | 4.54 µM | – | 1.68 µM | > 100 µM | 4.65 µM | 5.53 µM | 4.83 µM | 1.79 µM | 2.86 µM | > 100 µM | 1.92 µM | 5.6 µM | 1.85 µM | 2.05 µM | 2.08 µM | 0.424 µM | 1.89 µM | 2.06 µM |
| COc1ccc2nc(-c3ccccc3)cc(Nc3cccc(C(C)=O)c3)c2c1 | 55.6 µM | 28.2 µM | – | > 100 µM | > 100 µM | 33.1 µM | 43.4 µM | 78.7 µM | 14 µM | 4.89 µM | 34.1 µM | 21.5 µM | 50.6 µM | 12.4 µM | 15.3 µM | 12.6 µM | 3.67 µM | 7.57 µM | 18.3 µM |
